Key:
[1] = Inhibition of HIV1 gp160 by cell-cell fusion inhibition assay; design: species or system Human immunodeficiency virus 1
[2] = target: T1, Voltage-gated inwardly rectifying potassium channel KCNH2 (Homo sapiens, UniProt Q12809); assay: Inhibition of human ERG at 10 uM
[3] = Permeability from apical to basolateral side of human Caco-2 cells at 5 uM; type: ADME, cell-based; details: read-out: permeability
[4] = Permeability from apical to basolateral side in human Caco-2 cells at 5 uM; type: ADME, cell-based; details: read-out: permeability
[5] = Membrane permeability across dog RRCK at 2 uM; type: ADME, cell-based, Canis lupus familiaris, MDCKII-LE; details: MDCK, read-out: permeability
[6] = Metabolic stability in human liver microsomes assessed as intrinsic clearance at 1 uM; type: ADME, Microsome
[7] = Absorption in rat at 3 mg/kg, po; type: ADME, organism-based; design: dose 3 mg/kg, route oral; details: in vivo, read-out: Activity
[8] = Lipophilicity, log D of the compound; type: physicochemical; details: octanol/water
[9] = target: T1, Voltage-gated inwardly rectifying potassium channel KCNH2; assay: Inhibition of human ERG
[10] = Terminal half life in rat at 1 mg/kg, iv; type: ADME, organism-based; design: dose 1 mg/kg, route intravenous; details: in vivo, read-out: beta t1/2 (converted)
[11] = Metabolic stability in rat liver microsomes assessed as intrinsic clearance; type: ADME, Microsome
[12] = AUC in rat at 3 mg/kg, po; type: ADME, organism-based; design: dose 3 mg/kg, route oral; details: plasma
[13] = Clearance in rat at 1 mg/kg, iv; type: ADME, organism-based; design: dose 1 mg/kg, route intravenous; details: in vivo
[14] = Volume of distribution in rat at 1 mg/kg, iv; type: ADME, organism-based; design: dose 1 mg/kg, route intravenous; details: in vivo
Rattus norvegicus [15] = assay: Unbound clearance in rat at 1 mg/kg, iv; type: ADME, organism-based; design: dose 1 mg/kg, route intravenous; details: in vivo
[16] = Oral bioavailability in rat at 3 mg/kg, po; type: ADME, organism-based; details: in vivo
Rattus norvegicus [17] = assay: fAUC in rat at 1 mg/kg, iv; type: ADME, organism-based; design: dose 1 mg/kg, route intravenous; details: in vivo
Rattus norvegicus [18] = assay: Unbound volume of distribution in rat at 1 mg/kg, iv; type: ADME, organism-based; design: dose 1 mg/kg, route intravenous; details: in vivo
[19] = AUC in rat at 1 mg/kg, iv; type: ADME, organism-based; design: dose 1 mg/kg, route intravenous; details: plasma
Rattus norvegicus [20] = assay: fAUC in rat at 3 mg/kg, po; type: ADME, organism-based; design: dose 3 mg/kg, route oral; details: in vivo
[21] = Clearance in rat at 1 mg/kg, iv and 2 mg/kg, po; type: ADME, organism-based; details: in vivo
[22] = Oral bioavailability in rat at 1 mg/kg, iv and 2 mg/kg, po; type: ADME, organism-based; details: in vivo
[23] = Half life in rat at 1 mg/kg, iv and 2 mg/kg, po; type: ADME, organism-based; details: in vivo
[24] = Volume of distribution in rat at 1 mg/kg, iv and 2 mg/kg, po; type: ADME, organism-based; details: in vivo

T1 sequence (Q12809 whole entry): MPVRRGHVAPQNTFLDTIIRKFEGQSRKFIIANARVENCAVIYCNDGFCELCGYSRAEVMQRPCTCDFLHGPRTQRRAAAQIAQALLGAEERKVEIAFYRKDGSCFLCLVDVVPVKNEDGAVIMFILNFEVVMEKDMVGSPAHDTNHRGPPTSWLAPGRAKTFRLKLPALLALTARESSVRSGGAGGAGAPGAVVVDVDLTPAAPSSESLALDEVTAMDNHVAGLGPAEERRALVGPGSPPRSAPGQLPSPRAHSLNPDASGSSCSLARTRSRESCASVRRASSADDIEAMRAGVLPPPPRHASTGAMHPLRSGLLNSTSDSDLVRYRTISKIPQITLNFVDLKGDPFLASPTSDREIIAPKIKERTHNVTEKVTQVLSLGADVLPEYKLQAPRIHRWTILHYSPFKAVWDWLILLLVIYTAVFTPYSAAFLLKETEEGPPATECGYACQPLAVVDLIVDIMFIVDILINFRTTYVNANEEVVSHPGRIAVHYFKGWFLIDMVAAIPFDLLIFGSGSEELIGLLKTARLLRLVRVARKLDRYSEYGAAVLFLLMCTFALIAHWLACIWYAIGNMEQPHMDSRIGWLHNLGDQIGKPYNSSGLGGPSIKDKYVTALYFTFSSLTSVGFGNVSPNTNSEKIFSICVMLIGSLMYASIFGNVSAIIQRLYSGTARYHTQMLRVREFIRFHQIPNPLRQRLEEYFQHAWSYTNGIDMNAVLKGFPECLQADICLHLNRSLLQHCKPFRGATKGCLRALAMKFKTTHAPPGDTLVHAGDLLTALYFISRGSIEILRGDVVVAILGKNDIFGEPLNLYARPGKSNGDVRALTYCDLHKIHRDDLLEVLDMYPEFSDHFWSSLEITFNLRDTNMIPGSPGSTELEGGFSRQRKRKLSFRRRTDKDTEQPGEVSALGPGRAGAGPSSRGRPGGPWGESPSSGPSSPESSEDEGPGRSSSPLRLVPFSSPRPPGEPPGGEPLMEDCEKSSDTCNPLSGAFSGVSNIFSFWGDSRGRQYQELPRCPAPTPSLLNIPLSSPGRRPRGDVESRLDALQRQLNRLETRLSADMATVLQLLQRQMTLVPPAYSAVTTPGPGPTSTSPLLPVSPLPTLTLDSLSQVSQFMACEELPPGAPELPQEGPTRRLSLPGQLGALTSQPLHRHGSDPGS

Structure (SMILES) | IC50 [1] [nM] | inhibition (INH) [2] | Papp at 2 µM [5] [×10⁻⁶ cm/s] | microsomal CLint at 1 µM [6] [µL/min/mg] | also measured
Cc1nc2ccccc2n1C1C[C@H]2CC[C@@H](C1)N2CC[C@H](NC(=O)c1ccc(S(C)(=O)=O)cc1)c1cccc(F)c1 (stereo not given in full) | 40 |  |  |  | 
Cc1nc2ccc(F)cc2n1C1C[C@H]2CC[C@@H](C1)N2CCC(NC(=O)C1CC[S+]([O-])CC1)c1cccc(F)c1 (stereo not given in full) | 0.01 | Not Active |  |  | Papp A→B at 5 µM [3]: 2 ×10⁻⁶ cm/s; Papp A→B at 5 µM [4]: 18 ×10⁻⁶ cm/s
Cc1nc2cc(F)ccc2n1C1C[C@H]2CC[C@@H](C1)N2CCC(NC(=O)C1CC[S+]([O-])CC1)c1cccc(F)c1 (stereo not given in full) | 0.4 | Not Active | 2 | 93 | 
CCc1nc2ccccc2n1C1C[C@H]2CC[C@@H](C1)N2CCC(NC(=O)C1CC[S+]([O-])CC1)c1cccc(F)c1 (stereo not given in full) | 0.05 | Not Active | 2 | 89 | 
Cc1nc2ccc(F)cc2n1C1C[C@H]2CC[C@@H](C1)N2CC[C@H](NC(=O)C1CCS(=O)(=O)CC1)c1cccc(F)c1 (stereo not given in full) | 0.01 |  | 2 | 10 | Fa [7]: 3%; logD [8]: 2.9; Papp A→B at 5 µM [3]: 5 ×10⁻⁶ cm/s; Papp A→B at 5 µM [4]: 31 ×10⁻⁶ cm/s
Cc1nc2cc(F)ccc2n1C1C[C@H]2CC[C@@H](C1)N2CC[C@H](NC(=O)C1CCS(=O)(=O)CC1)c1cccc(F)c1 (stereo not given in full) | 0.03 | Not Active | 2 | 14 | Papp A→B at 5 µM [3]: 3 ×10⁻⁶ cm/s; Papp A→B at 5 µM [4]: 21 ×10⁻⁶ cm/s
CCc1nc2ccccc2n1C1C[C@H]2CC[C@@H](C1)N2CC[C@H](NC(=O)C1CCS(=O)(=O)CC1)c1cccc(F)c1 (stereo not given in full) | 0.3 | Not Active | 3 | 25 | 
Cc1nc2ccccc2n1C1C[C@H]2CC[C@@H](C1)N2CC[C@H](NC(=O)c1ccc([S+](C)[O-])cc1)c1cccc(F)c1 (stereo not given in full) | 40 |  |  |  | 
Cc1nc2ccncc2n1C1C[C@H]2CC[C@@H](C1)N2CC[C@H](NC(=O)c1ccc([S+](C)[O-])cc1)c1cccc(F)c1 (stereo not given in full) | 2 |  |  |  | 
Cc1nc2ccc(F)cc2n1C1C[C@H]2CC[C@@H](C1)N2CC[C@H](NC(=O)c1ccc([S+](C)[O-])cc1)c1cccc(F)c1 (stereo not given in full) | 1 |  |  |  | 
Cc1nc2cc(F)ccc2n1C1C[C@H]2CC[C@@H](C1)N2CC[C@H](NC(=O)c1ccc([S+](C)[O-])cc1)c1cccc(F)c1 (stereo not given in full) | 36 |  |  |  | 
Cc1nc2ccncc2n1C1C[C@H]2CC[C@@H](C1)N2CC[C@H](NC(=O)c1ccc(S(C)(=O)=O)cc1)c1cccc(F)c1 (stereo not given in full) | 1 |  |  |  | 
Cc1nc2cc(F)ccc2n1C1C[C@H]2CC[C@@H](C1)N2CC[C@H](NC(=O)c1ccc(S(C)(=O)=O)cc1)c1cccc(F)c1 (stereo not given in full) | 8 |  |  |  | 
Cc1nc2cc(F)ccc2n1C1C[C@H]2CC[C@@H](C1)N2CC[C@H](NC(=O)c1cc[n+]([O-])cc1)c1cccc(F)c1 (stereo not given in full) | 0.1 |  |  |  | 
CCc1nc2ccccc2n1C1C[C@H]2CC[C@@H](C1)N2CC[C@H](NC(=O)c1cc[n+]([O-])cc1)c1cccc(F)c1 (stereo not given in full) | 24 |  |  |  | 
Cc1nc2ccc(F)cc2n1C1C[C@H]2CC[C@@H](C1)N2CC[C@H](NC(=O)c1ccc[n+]([O-])c1)c1cccc(F)c1 (stereo not given in full) | 0.5 |  |  |  | 
Cc1nc2cc(F)ccc2n1C1C[C@H]2CC[C@@H](C1)N2CC[C@H](NC(=O)c1ccc[n+]([O-])c1)c1cccc(F)c1 (stereo not given in full) | 1 |  |  |  | 
Cc1nc2ccncc2n1C1C[C@H]2CC[C@@H](C1)N2CC[C@H](NC(=O)C1CCS(=O)(=O)CC1)c1cccc(F)c1 (stereo not given in full) | 0.2 | Not Active | 1 | < 8 | 
Cc1nc2ccncc2n1C1C[C@H]2CC[C@@H](C1)N2CC[C@H](NC(=O)c1cc[n+]([O-])cc1)c1cccc(F)c1 (stereo not given in full) | 4 |  |  |  | 
Cc1nc2ccccc2n1C1C[C@H]2CC[C@@H](C1)N2CC[C@H](NC(=O)C1CCSCC1)c1cccc(F)c1 (stereo not given in full) | 0.2 |  | 29 | > 320 | IC50 [9]: 740 nM; half-life [10]: 0.8 h; microsomal CLint [11]: > 510 µL/min/mg; Fa [7]: 9%; AUC [12]: 10 ng·h/mL; clearance [13]: 60 mL/min/kg; logD [8]: 3.7; Vd [14]: 2 L/kg; CL free (Rattus norvegicus [15]): 2431 mL/min/kg; bioavailability [16]: 1%; fAUC (Rattus norvegicus [17]): 6.7 ng·h/mL; Vdu (Rattus norvegicus [18]): 81 L/kg; AUC [19]: 270 ng·h/mL; fAUC (Rattus norvegicus [20]): 0.25 ng·h/mL
Cc1nc2ccccc2n1C1C[C@H]2CC[C@@H](C1)N2CC[C@H](NC(=O)[C@H]1CC[S@@+]([O-])CC1)c1cccc(F)c1 (stereo not given in full) |  |  | 1 | 36 | AUC [12]: 11 ng·h/mL; Papp A→B at 5 µM [3]: 2 ×10⁻⁶ cm/s; Papp A→B at 5 µM [4]: 20 ×10⁻⁶ cm/s; fAUC (Rattus norvegicus [20]): 1.7 ng·h/mL
Cc1nc2ccccc2n1C1C[C@H]2CC[C@@H](C1)N2CC[C@H](NC(=O)[C@H]1CC[S@+]([O-])CC1)c1cccc(F)c1 (stereo not given in full) |  |  | 1 | 111 | AUC [12]: 2 ng·h/mL; fAUC (Rattus norvegicus [20]): 0.3 ng·h/mL
Cc1nc2ccccc2n1C1C[C@H]2CC[C@@H](C1)N2CC[C@H](NC(=O)C1CC[S+]([O-])CC1)c1cccc(F)c1 (stereo not given in full) | 0.2 | Not Active | 0.8 | 38 | IC50 [9]: > 10000 nM; clearance [21]: 104 mL/min/kg; logD [8]: 2.3; bioavailability [22]: < 1%; half-life [23]: 2.6 h; Vd [24]: 23 L/kg
Cc1nc2ccccc2n1C1C[C@H]2CC[C@@H](C1)N2CC[C@H](NC(=O)C1CCS(=O)(=O)CC1)c1cccc(F)c1 (stereo not given in full) | 0.2 | Not Active | 4 | 23 | AUC [12]: < 1 ng·h/mL; Papp A→B at 5 µM [3]: < 1 ×10⁻⁶ cm/s; Papp A→B at 5 µM [4]: 20 ×10⁻⁶ cm/s; fAUC (Rattus norvegicus [20]): < 0.1 ng·h/mL
CC[S+]([O-])CC(=O)N[C@@H](CCN1[C@@H]2CC[C@H]1CC(n1c(C)nc3ccccc31)C2)c1cccc(F)c1 (stereo not given in full) | > 100 |  |  |  | 
Cc1nc2ccccc2n1C1C[C@H]2CC[C@@H](C1)N2CC[C@H](NC(=O)c1cc[n+]([O-])cc1)c1cccc(F)c1 (stereo not given in full) | 4 |  |  |  | 
Cc1nc2ccccc2n1C1C[C@H]2CC[C@@H](C1)N2CC[C@H](NC(=O)c1ccc[n+]([O-])c1)c1cccc(F)c1 (stereo not given in full) | 5 |  |  |  | 
Cc1nc2ccccc2n1C1C[C@H]2CC[C@@H](C1)N2CC[C@H](NC(=O)c1cccc[n+]1[O-])c1cccc(F)c1 (stereo not given in full) | > 100 |  |  |  | 
Cc1nc2cnccc2n1C1C[C@H]2CC[C@@H](C1)N2CC[C@H](NC(=O)C1CC[S+]([O-])CC1)c1cccc(F)c1 (stereo not given in full) | 4 |  |  |  | 
Cc1nc2ccncc2n1C1C[C@H]2CC[C@@H](C1)N2CCC(NC(=O)C1CC[S+]([O-])CC1)c1cccc(F)c1 (stereo not given in full) | 1 | Not Active |  | 50 | Papp A→B at 5 µM [3]: 2 ×10⁻⁶ cm/s; Papp A→B at 5 µM [4]: 2 ×10⁻⁶ cm/s

Source: ChEMBL document CHEMBL1268988, “An in situ oxidation strategy towards overcoming hERG affinity” (Bioorg Med Chem Lett, 2010)
